Laboratory results taken from the supplement of paper PMC10307832.

Columns and labels:
Test in all cases: relative viability (nuclei count vs DMSO), 5 days (fraction); higher = more cells survive
[1] = compound: CN(C)CC1=CC(=CC=C1)N=C(C2=CC=CC=C2)C3=C(NC4=C3C=CC(=C4)C(=O)N(C)C)O + C[C@]1(O)C[C@@H](c2nc(-c3ccc4ccc(-c5ccccc5)nc4c3)c3c(N)nccn32)C1 [Linsitinib] (partner 1 µM)
Summary of the method: (§1)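 Relative viability divides the nuclei count in treated wells by that in vehicle wells. Lung cancer cell lines were seeded in 1536-well plates, dosed by pin tool the next day, and fixed and stained after 5 days in one step with final 0.05% Triton X-100, 1% formaldehyde and 1 ug/ml Hoechst. Dosing was a single drug or a fixed anchor-drug dose plus five library-drug doses (not always all listed) in √10 steps, and values are medians of duplicate plates imaged at 4×.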

[2] = compound: CN(C)CC1=CC(=CC=C1)N=C(C2=CC=CC=C2)C3=C(NC4=C3C=CC(=C4)C(=O)N(C)C)O + CS(=O)(=O)CCNCc1ccc(-c2ccc3ncnc(Nc4ccc(OCc5cccc(F)c5)c(Cl)c4)c3c2)o1 [Lapatinib] (partner 2 µM)
Summary of the method: as §1

[3] = compound: CN(C)CC1=CC(=CC=C1)N=C(C2=CC=CC=C2)C3=C(NC4=C3C=CC(=C4)C(=O)N(C)C)O + COc1cccc2cc(-c3nc([C@H]4CC[C@H](C(=O)O)CC4)n4ncnc(N)c34)[nH]c12 [OSI-027] (partner 0.5 µM)
Summary of the method: as §1

[4] = compound: CN(C)CC1=CC(=CC=C1)N=C(C2=CC=CC=C2)C3=C(NC4=C3C=CC(=C4)C(=O)N(C)C)O + CC(=O)Nc1cccc(-n2c(=O)n(C3CC3)c(=O)c3c(Nc4ccc(I)cc4F)n(C)c(=O)c(C)c32)c1 [Trametinib] (partner 0.02 µM)
Summary of the method: as §1

| Cell Line | relative viability ([1]; first compound 0.08 µM) | relative viability ([1]; first compound 0.253 µM) | relative viability ([1]; first compound 0.8 µM) | relative viability ([1]; first compound 2.53 µM) | relative viability ([1]; first compound 8 µM) | relative viability ([2]; first compound 0.08 µM) | relative viability ([2]; first compound 0.253 µM) | relative viability ([2]; first compound 0.8 µM) | relative viability ([2]; first compound 2.53 µM) | relative viability ([2]; first compound 8 µM) | relative viability ([3]; first compound 0.08 µM) | relative viability ([3]; first compound 0.253 µM) | relative viability ([3]; first compound 0.8 µM) | relative viability ([3]; first compound 2.53 µM) | relative viability ([3]; first compound 8 µM) | relative viability ([4]; first compound 0.08 µM) | relative viability ([4]; first compound 0.253 µM) | relative viability ([4]; first compound 0.8 µM) | relative viability ([4]; first compound 2.53 µM) | relative viability ([4]; first compound 8 µM) |
| --- | --- | --- | --- | --- | --- | --- | --- | --- | --- | --- | --- | --- | --- | --- | --- | --- | --- | --- | --- | --- |
| NCI-H1666 | 0.695 | 0.934 | 0.741 | 0.941 | 0.731 | 0.868 | 0.616 | 0.887 | 0.668 | 0.774 | 0.858 | 0.851 | 0.889 | 0.831 | 1.05 | 0.966 | 0.879 | 0.73 | 0.85 | 0.928 |
| NCI-H1734 | 0.763 | 0.911 | 0.957 | 0.9 | 0.762 | 1 | 1.08 | 1.02 | 1.02 | 0.881 | 0.599 | 0.6 | 0.56 | 0.561 | 0.577 | 0.625 | 0.701 | 0.735 | 0.698 | 0.579 |
| NCI-H1755 | 0.986 | 1.01 | 0.926 | 0.998 | 0.973 | 1.09 | 0.98 | 1.02 | 0.935 | 1.07 | 0.707 | 0.7 | 0.798 | 0.773 | 0.622 | 0.844 | 0.709 | 0.708 | 0.779 | 0.736 |
| NCI-H1792 | 0.548 | 0.493 | 0.5 | 0.372 | 0.424 | 0.866 | 0.896 | 0.873 | 0.818 | 0.945 | 0.77 | 0.729 | 0.709 | 0.721 | 0.58 | 0.473 | 0.371 | 0.485 | 0.501 | 0.425 |
| NCI-H1793 | 0.96 | 0.84 | 0.617 | 1.03 | 0.806 | 0.79 | 0.665 | 0.569 | 0.823 | 0.891 | 0.29 | 0.299 |  | 0.329 | 0.196 | 0.426 | 0.418 | 0.433 | 0.381 | 0.445 |
| NCI-H1915 | 1.09 | 1.12 | 1.15 | 1.02 | 1.11 | 0.957 | 0.955 | 1.05 | 0.971 | 0.956 | 0.635 | 0.643 | 0.71 | 0.659 | 0.575 | 0.298 | 0.278 | 0.32 | 0.289 | 0.265 |
| NCI-H1944 | 1.18 | 1.18 | 1.01 | 1.17 | 1.08 | 0.805 | 0.835 | 0.924 | 0.755 | 0.765 | 0.447 | 0.491 | 0.4 | 0.355 | 0.348 | 0.44 | 0.4 | 0.337 | 0.464 | 0.373 |
| NCI-H1975 | 0.935 | 0.999 | 0.824 | 0.871 | 0.855 | 0.948 | 0.81 | 0.835 | 0.742 | 0.951 | 0.747 | 0.0592 | 0.675 | 0.747 | 0.585 | 0.368 | 0.323 | 0.304 | 0.298 | 0.238 |
| NCI-H1993 | 0.716 | 0.787 | 0.7 | 0.737 | 0.799 | 1.09 | 0.882 | 0.827 | 0.826 | 0.706 | 0.529 | 0.581 | 0.567 | 0.531 | 0.598 | 0.464 | 0.513 |  | 0.53 | 0.592 |
| NCI-H2009 | 1.19 | 1.21 | 1.21 | 1.12 | 1.19 | 1.07 | 0.98 | 1.03 | 0.813 | 0.886 | 0.507 | 0.693 | 0.764 | 0.616 | 0.467 | 0.276 | 0.314 | 0.271 | 0.297 | 0.244 |
| NCI-H2023 | 0.625 | 0.607 | 0.533 | 0.563 | 0.625 | 1.25 | 0.889 | 0.812 | 0.497 | 0.43 | 0.321 | 0.468 | 0.488 | 0.318 | 0.335 | 0.639 | 0.557 | 0.556 | 0.545 | 0.471 |
| NCI-H2085 | 0.897 | 0.844 | 0.875 | 0.92 | 0.916 | 0.791 | 0.844 | 0.758 | 0.758 | 0.733 | 0.856 | 1.15 | 0.582 | 0.955 | 0.768 | 0.509 | 0.568 | 0.599 | 0.643 | 0.545 |
| NCI-H2087 | 0.981 | 1.01 | 1.06 | 0.828 | 0.966 | 1.08 | 0.835 | 1.1 | 0.942 | 1.05 | 0.552 | 0.668 | 0.569 | 0.542 | 0.367 | 0.21 | 0.247 | 0.201 | 0.196 | 0.166 |
| NCI-H2126 | 0.701 | 0.668 | 0.679 | 0.759 | 0.686 | 0.76 | 0.762 | 0.73 | 0.765 | 0.762 | 0.612 | 0.745 | 0.812 | 0.8 | 0.676 | 0.6 | 0.59 | 0.484 | 0.602 | 0.55 |
| NCI-H2228 | 0.66 | 0.541 | 1.12 | 0.63 | 0.582 | 1.06 | 1.13 | 1.19 | 0.704 | 0.846 | 0.638 | 0.736 | 0.615 | 0.492 | 0.419 | 0.625 | 0.417 | 0.376 | 0.457 | 0.421 |
| NCI-H2347 | 1.04 | 0.995 | 0.994 | 1.03 | 1.05 | 1.01 | 0.899 | 0.975 | 0.953 | 0.963 | 0.444 | 0.525 | 0.407 | 0.471 | 0.703 | 0.301 | 0.26 | 0.278 | 0.252 | 0.33 |
| NCI-H2405 | 1.01 | 0.845 | 1.03 | 0.867 | 0.76 | 1.06 | 1.09 | 1.15 | 0.999 | 0.963 | 0.629 | 0.653 | 0.618 | 0.57 | 0.544 | 0.642 | 0.634 | 0.593 | 0.605 | 0.535 |
| NCI-H3122 | 1.08 | 1.05 | 1.08 | 0.972 | 1.05 | 0.96 | 0.971 | 1.01 | 0.983 | 0.997 | 1.01 | 0.962 | 1.41 | 1.06 | 0.933 | 0.225 | 0.203 | 0.235 | 0.245 | 0.243 |
| PC-3 [JPC-3] | 0.985 | 0.907 | 0.883 | 0.967 | 1.06 | 0.436 | 0.458 | 0.435 | 0.465 | 0.444 | 0.718 | 0.792 | 0.73 | 0.802 | 0.746 | 0.709 | 0.681 | 0.653 | 0.678 | 0.702 |
| PC-14 | 0.98 | 0.954 | 0.96 | 0.874 | 0.998 | 0.33 | 0.264 | 0.38 | 0.313 | 0.311 | 0.913 | 0.85 | 0.968 | 0.734 | 0.563 | 0.932 | 0.904 | 0.968 | 0.8 | 0.76 |
| RERF-LC-KJ | 0.912 | 0.93 | 0.81 | 0.948 | 0.87 | 0.917 | 0.882 | 0.834 | 0.793 | 0.859 | 0.575 | 0.613 | 0.537 | 0.583 | 0.542 | 0.911 | 0.837 | 0.844 | 0.907 | 0.846 |
| SK-LU-1 | 1.05 | 1.2 | 1.27 | 1.17 | 0.77 | 0.814 | 0.878 | 0.831 | 0.747 | 0.836 | 0.373 | 0.366 | 0.429 | 0.346 | 0.244 | 0.448 | 0.446 | 0.459 | 0.445 | 0.385 |
| SK-MES-1 | 1.1 | 1 | 1.07 | 0.918 | 0.988 | 0.53 | 0.531 | 0.49 | 0.426 | 0.443 | 0.618 | 0.689 | 0.635 | 0.534 | 0.533 | 0.524 | 0.576 | 0.588 | 0.497 | 0.406 |
| SW 1573 | 0.735 | 0.829 | 0.731 | 0.73 | 0.731 | 1.1 | 1.24 | 1.13 | 1.08 | 0.955 | 0.581 | 0.644 | 0.626 | 0.638 | 0.521 | 0.56 | 0.572 | 0.587 | 0.637 | 0.515 |
| UMC-11 | 1.01 | 0.986 | 0.985 | 0.999 | 0.926 | 1.1 | 0.963 | 0.969 | 0.891 | 0.846 | 0.492 | 0.489 | 0.565 | 0.404 | 0.368 | 0.836 | 0.674 | 0.716 | 0.576 | 0.742 |
